These results are taken from patent US11193164B2, “Methods of diagnosing and treating cancer targeting extrachromosomal DNA” (The Regents of the University of California, priority 2017, dated 2021).

In experiment [1] the test system is GBM39 cells. Put plainly: FISH images of EGFRvIII amplification (extrachromosomal or chromosomal DNA) in GBM39 cells. It counts as cell-based, human. The following applies: FIG. 13A. The protocol: Cytogenetics. Metaphase cells were obtained by treating cells with Karyomax (Gibco) at a final concentration of 0.01 μg/ml for 1-3 hours. Cells were collected, washed in PBS, and resuspended in 0.075 M KCl for 15-30 minutes. Carnoy's fixative (3:1 methanol/glacial acetic acid) was added dropwise to stop the reaction. Cells were washed an additional 3 times with Carnoy's fixative, before being dropped onto humidified glass sides for metaphase cell preparations. For ECdetect analyses, DAPI was added to the slides. Images in the main figures were captured with an Olympus FV1000 confocal microscope. All other images were captured at a magnification of 1000 with an Olympus BX43 microscope equipped with a QiClick cooled camera. FISH was performed by adding the appropriate DNA FISH probe onto the fixed metaphase spreads. A coverslip was added and sealed with rubber cement. DNA denaturation was carried out at 75° C. for 3-5 minutes and the slides were allowed to hybridize overnight at 37° C. in a humidified chamber. Slides were subsequently washed in 0.4×SSC at 50° C. for 2 minutes, followed by a final wash in 2×SSC/0.05% Tween-20. Metaphase cells and interphase nuclei were counterstained with DAPI, a coverslip was applied, and images were captured.

The subject of experiment [2] is GBM39 cells. Kind of experiment: Next generation sequencing fine structure analysis of EGFRvIII amplification in GBM39 cultures. It counts as cell-based, human. The following applies: Erlotinib Treatment (ERZ) sample (row 4), FIG. 13B, naive samples 110 to 150.

`C#Cc1cccc(Nc2ncnc3cc(OCCOC)c(OCCOC)cc23)c1` [Erlotinib]: the “Location of EGFRvIII amplification in FISH images” value is given as “EC amplification” in experiment [1] (GBM39 cells after Drug Withdrawal) and “HSR amplification” in experiment [1] (GBM39 cells in response to Erlotinib Treatment (ERZ), naive cells EC amplification). The “Average copy numbers of amplified intervals as determined from sequencing analysis” value in experiment [2] is listed as 5.4.
